The source made the active and inactive calls. No rule for the calls is given here.
System: Broad 7084-01 inhibitor HTS, set 2
Test: inhibitors in Broad screen 7084-01, set 2 (AID 977613);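 also: host cells are infected with parasite promastigotes that become internalized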

SMILES | active concentration
CN1CCN(C(=O)C[C@@H]2CC[C@H]3[C@@H](COC[C@@H](O)CN3C(=O)C3CC3)O2)CC1 | > 10 µM (inactive)
O=C(C1CCOCC1)N1[C@@H](CO)[C@@H](c2ccccc2)C12CN(Cc1cccc(Cl)c1)C2 | > 10 µM (inactive)
Cc1ccc(NC(=O)C[C@H]2CC[C@H]3[C@@H](COc4ccc(NC(=O)C5CCC5)cc4C(=O)N3C)O2)cc1 | > 10 µM (inactive)
COc1cccc(C(=O)Nc2ccc3c(c2)C(=O)N(C)[C@H]2CC[C@H](CC(=O)NCCCN4CCOCC4)O[C@H]2CO3)c1 | > 10 µM (inactive)
COc1cccc(-c2ccc([C@H]3[C@@H](CO)N4C(=O)CN(C(=O)c5cccnc5)C[C@@H]34)cc2)c1 | > 10 µM (inactive)
COc1ccc2c3c([nH]c2c1)[C@@H](CO)N(C(=O)Nc1ccc(F)cc1)CC31CN(S(=O)(=O)c2ccc(C)cc2)C1 | > 10 µM (inactive)
O=C(Nc1cccc(F)c1)N1C[C@@H]2[C@H](c3ccccc31)[C@H](CO)N2C(=O)Cc1ccccn1 | > 10 µM (inactive)
COc1ccccc1-c1ccc2n(c1=O)C[C@H]1[C@H](CO)[C@@H](C(=O)NCc3ccccc3Cl)N[C@@H]21 | > 10 µM (inactive)
Cc1cccc(S(=O)(=O)N2C[C@H](O)COC[C@@H]3O[C@H](CC(=O)Nc4ccccc4)CC[C@H]32)c1 | > 10 µM (inactive)
COc1ccc2c3c(n(C)c2c1)[C@@H](CO)NCC31CCN(Cc2cc(F)ccc2F)CC1 | > 10 µM (inactive)
CCCC#Cc1ccc([C@H]2[C@@H](CO)N3C(=O)CN(C(=O)CN4CCOCC4)C[C@@H]23)cc1 | > 10 µM (inactive)
Cc1ccccc1S(=O)(=O)N1CC[C@@H]2[C@@H](CO)Nc3ccc(C#Cc4ccccc4)cc3[C@@H]21 | > 10 µM (inactive)
CC(C)NC(=O)N1[C@H](CO)[C@H](c2ccccc2)C12CN(C(=O)Cc1cccnc1)C2 | > 10 µM (inactive)
O=C(c1cccnc1)N1C[C@H]2[C@@H](c3ccccc31)[C@H](CO)N2C(=O)CN1CCOCC1 | < 10 µM
COC(=O)[C@H]1[C@H](CO)[C@H]2Cn3c(ccc(-c4ccccc4OC)c3=O)[C@H]2N1C(=O)c1cnccn1 | > 10 µM (inactive)
O=C(C1CC1)N1CC2(C1)[C@H](c1ccccc1)[C@@H](CO)N2Cc1nccs1 | > 10 µM (inactive)
O=C(C[C@H]1CC[C@@H]2[C@H](COC[C@@H](O)CN2Cc2cc(F)ccc2F)O1)NCc1ccc(F)cc1 | > 10 µM (inactive)
CCCNC(=O)N1[C@H](CO)[C@H](c2ccccc2-c2ccc(C)cc2)[C@@H]1C#N | > 10 µM (inactive)
O=C(O)[C@H]1[C@H](CO)[C@H]2Cn3c(ccc(-c4ccccc4F)c3=O)[C@@H]1N2C(=O)c1cccnc1 | > 10 µM (inactive)
OC[C@H]1[C@H](c2ccc(Br)cc2)[C@H]2CN(Cc3ccccn3)CCCCN21 | < 10 µM
O=C(C[C@H]1CC[C@@H]2[C@H](COC[C@H](O)CN2CCc2ccccc2)O1)NCc1ccc(F)cc1 | > 10 µM (inactive)
O=C(CN1CCOCC1)N1CC(=O)N2[C@H](C1)[C@@H](c1ccc(-c3cccc(F)c3)cc1)[C@@H]2CO | > 10 µM (inactive)
O=C(CC1CC1)N1[C@@H]2CN(S(=O)(=O)c3ccccc3F)c3ccccc3[C@@H]2[C@@H]1CO | > 10 µM (inactive)
CN(C)C(=O)C[C@@H]1CC[C@H]2[C@@H](COC[C@@H](O)CN2CC2CC2)O1 | > 10 µM (inactive)

SMILES | active concentration
CN1CCN(C(=O)C[C@H]2CC[C@@H]3[C@H](COC[C@@H](O)CN3C(=O)C3CC3)O2)CC1 | > 10 µM (inactive)
COCC(=O)N1[C@H](C(=O)Nc2ccccc2)[C@@H](CO)[C@@H]2Cn3c(ccc(-c4cccnc4)c3=O)[C@@H]21 | > 10 µM (inactive)
O=C(C1CCOCC1)N1CC(=O)N2[C@@H](CO)[C@H](c3ccc(C#CCc4ccccc4)cc3)[C@@H]2C1 | > 10 µM (inactive)
O=S(=O)(c1ccc(F)cc1)N1CCCCN2[C@H](CO)[C@@H](c3ccc(-c4cncnc4)cc3)[C@H]2C1 | > 10 µM (inactive)
COc1ccccc1NC(=O)N1C[C@@H]2[C@H](c3ccccc31)[C@@H](CO)N2C(C)=O | > 10 µM (inactive)
COc1ccc2c3c([nH]c2c1)[C@H](CO)N(Cc1ccc(F)cc1)CC31CCN(C)CC1 | > 10 µM (inactive)
CN1C(=O)c2cc(NC(=O)Cc3cccs3)ccc2OC[C@H]2O[C@H](CC(=O)N[C@@H]3CCN(Cc4ccccc4)C3)CC[C@H]21 | > 10 µM (inactive)
COc1ccc2c3c(n(C)c2c1)[C@@H](CO)N(C(=O)C1CC1)CC31CCN(Cc2cccc(F)c2)CC1 | > 10 µM (inactive)
COc1ccc(-c2ccccc2[C@H]2[C@@H](CO)N(C(=O)NC(C)C)[C@H]2C#N)cc1 | > 10 µM (inactive)
CN(C)C(=O)C[C@@H]1CC[C@@H]2[C@H](COC[C@H](O)CN2CC2CC2)O1 | > 10 µM (inactive)
C/C=C/c1ccc([C@H]2[C@@H](CO)N3C(=O)CN(S(=O)(=O)c4ccccc4)C[C@@H]23)cc1 | > 10 µM (inactive)
COc1ccc2c3c([nH]c2c1)[C@@H](CO)N(C(=O)c1ccc(F)cc1)CC31CCN(S(=O)(=O)c2cccs2)CC1 | > 10 µM (inactive)
C/C=C/c1ccccc1[C@@H]1[C@@H](CO)N(C(=O)CN2CCOCC2)[C@H]1C#N | > 10 µM (inactive)
O=C(C[C@@H]1CC[C@H]2[C@@H](COC[C@@H](O)CN2Cc2ccc3c(c2)OCO3)O1)Nc1ccccc1 | > 10 µM (inactive)
OC[C@H]1[C@H]2c3ccccc3NC[C@H]2N1Cc1cccnc1 | > 10 µM (inactive)
N#C[C@H]1[C@H](c2ccccc2-c2cccc(F)c2)[C@@H](CO)N1C(=O)CN1CCOCC1 | > 10 µM (inactive)
CN(C)CC(=O)N1CCCCN2[C@@H](CO)[C@@H](c3ccc(/C=C/c4ccccc4)cc3)[C@@H]2C1 | < 10 µM
COc1ccc(-c2ccc3c(c2)[C@@H]2[C@@H](CCN2C(=O)CN2CCOCC2)[C@H](CO)N3)cc1 | > 10 µM (inactive)
O=C(c1cnccn1)N1CC(=O)N2[C@H](CO)[C@@H](c3ccc(C#CC4CC4)cc3)[C@H]2C1 | > 10 µM (inactive)
N#C[C@@H]1[C@H](c2ccccc2-c2cccc(F)c2)[C@H](CO)N1S(=O)(=O)c1cccc(F)c1 | > 10 µM (inactive)
COCC(=O)N1CC2(CCN(C(=O)c3ccccn3)CC2)c2c(n(C)c3cc(OC)ccc23)[C@H]1CO | > 10 µM (inactive)
O=C(C1CCOCC1)N1C[C@H]2[C@@H](c3ccccc31)[C@H](CO)N2C(=O)Cc1ccccc1 | > 10 µM (inactive)
COc1cccc(NC(=O)N2C[C@@H](O)COC[C@H]3O[C@H](CC(=O)NC4CCC4)CC[C@@H]32)c1 | > 10 µM (inactive)
CCC(=O)N1CC2(C1)[C@@H](c1ccc(-c3ccc(F)cc3)cc1)[C@@H](CO)N2C(=O)CC | > 10 µM (inactive)

SMILES | active concentration
O=C(Nc1cc(F)ccc1F)N1CCCCN2[C@@H](CO)[C@@H](c3ccc(C4=CCCCC4)cc3)[C@@H]2C1 | > 10 µM (inactive)
O=C(C[C@@H]1CC[C@@H]2[C@H](COC[C@H](O)CN2CC2CC2)O1)NCC1CC1 | > 10 µM (inactive)
CN1[C@H](CO)[C@@H]2c3ccccc3N(C(=O)c3ccc(F)cc3)C[C@@H]21 | > 10 µM (inactive)
O=C(c1ccccc1)N1CC(=O)N2[C@H](CO)[C@@H](c3ccc(-c4ccccc4)cc3)[C@H]2C1 | > 10 µM (inactive)
O=C1CNC[C@H]2[C@H](c3ccc(C4=CCCC4)cc3)[C@@H](CO)N12 | > 10 µM (inactive)
CC(C)C#Cc1ccc([C@H]2[C@H](CO)N3C(=O)CN(C(=O)Cc4ccccc4)C[C@@H]23)cc1 | > 10 µM (inactive)
Cc1nn(C)cc1NC(=O)C[C@H]1CC[C@H]2[C@@H](COc3ccc(NC(=O)C4CCOCC4)cc3C(=O)N2C)O1 | > 10 µM (inactive)
CCS(=O)(=O)N1CCC2(CC1)CN(C(=O)Nc1c(C)noc1C)[C@H](CO)c1c2c2ccc(OC)cc2n1C | > 10 µM (inactive)
O=C(C[C@H]1CC[C@H]2[C@@H](COC[C@@H](O)CN2CC2CCOCC2)O1)NCC1CCCCC1 | > 10 µM (inactive)
COc1ccccc1CNC(=O)C[C@@H]1CC[C@H]2[C@@H](COC[C@@H](O)CN2C(=O)Nc2ccccc2)O1 | > 10 µM (inactive)
COc1ccc2c3c([nH]c2c1)[C@H](CO)N(C(=O)Nc1ccc(F)cc1)CC31CCN(CC2CCOCC2)CC1 | > 10 µM (inactive)
O=C(C[C@@H]1CC[C@H]2[C@@H](COC[C@@H](O)CN2S(=O)(=O)c2cccc(Cl)c2)O1)Nc1ccc(-c2ccccc2)cc1 | > 10 µM (inactive)
CN(C)C(=O)C[C@H]1CC[C@H]2[C@@H](COC[C@H](O)CN2CC2CCCC2)O1 | > 10 µM (inactive)
C/C=C/c1ccc([C@@H]2[C@@H](CO)N3C(=O)CN(C(=O)c4ccncc4)C[C@H]23)cc1 | > 10 µM (inactive)
Cc1ccc(S(=O)(=O)N2CC[C@H]3[C@H](CO)Nc4ccc(C#Cc5ccc(F)cc5)cc4[C@H]32)cc1 | > 10 µM (inactive)
N#C[C@H]1[C@H](c2ccccc2-c2ccccc2F)[C@@H](CO)N1C(=O)C1CCC1 | > 10 µM (inactive)
Cc1nn(C)cc1NC(=O)C[C@H]1CC[C@@H]2[C@@H](COc3ccc(NC(=O)C4CCOCC4)cc3C(=O)N2C)O1 | > 10 µM (inactive)
C/C=C/c1ccc([C@@H]2[C@@H](CO)N3C(=O)CN(Cc4ccc(F)cc4)C[C@@H]23)cc1 | > 10 µM (inactive)
O=C(CC1CC1)N1[C@H](CO)[C@@H](c2ccccc2)C12CN(Cc1cccnc1)C2 | > 10 µM (inactive)
O=C(Nc1ccc(-c2ccccc2)cc1)[C@@H]1[C@@H](CO)[C@@H]2Cn3c(cccc3=O)[C@H]1N2Cc1ccncc1 | > 10 µM (inactive)
COc1ccc2c3c([nH]c2c1)[C@H](CO)N(C)CC31CCN(S(=O)(=O)c2ccc(C)cc2)CC1 | > 10 µM (inactive)
COc1ccccc1C#Cc1ccc2c(c1)[C@@H]1[C@@H](CCN1C(C)=O)[C@@H](CO)N2C | > 10 µM (inactive)

Reference: PubChem BioAssay AID977613 (Broad Institute, 2014)
